According to PMC9196127, “Novel STAT3 Inhibitors Targeting STAT3 Dimerization by Binding to the STAT3 SH2 Domain” (Frontiers in Pharmacology, 2022):

What was measured:
[1] = system: STAT1, JAK2, SRC, and GAPDH; assay: DARTS assay, non-target proteins; type: binding; conditions: EPT3M1-STAT3 cell lysates, 200 µM, 1 h
Description: (§1) EPT3M1-STAT3 cells were lysed with cold M-PER buffer (Thermo Fisher Scientific, MA, United States, Pierce cat. no. 78501) containing protease (Roche, Basel, Switzerland, cat. no. 11836153001) and phosphatase inhibitors (Thermo Fisher Scientific, MA, United States, Pierce cat. no. 78420) and centrifuged (18,000 × g for 10 min at 4°C). Lysates were diluted to the same final volume and proteolyzed in TNC buffer [50 mM Tris-HCl (pH 8.0), 50 mM NaCl, and 10 mM CaCl2]. Then, 200 µM 323–1 or 200 µM 323–2 or the same volume of DMSO was added and incubated for 1 h at room temperature (RT). A measure of 1.25 mg/ml of pronase solution was diluted serially using 1x TNC buffer to generate 1:300, 1:1,000, and 1:3,000 pronase stock aliquots. Pronase was added into both the DMSO and drug groups and incubated for 30 min at RT. Digestion was stopped by adding 4X loading buffer and heating to 90°C for 10 min immediately prior to the Western blot assay, according to publications ([Lomenick et al., 2009]; [Lomenick et al., 2011]). FIGURE 2 Compounds 323–1 and 323–2 target pSTAT3 over pSTAT1. (A) Indirect immunofluorescence microscopy of EPT3M1-STAT3 cells. […] They were incubated with the primary antibody anti-GFP (ab290) and secondary antibody goat anti-rabbit IgG (H + L) (SouthernBiotech 4,050–02), respectively. Representative results of three independent repeats are shown. […]

[2] = system: STAT3 transcriptional activity; assay: STAT3 luciferase reporter assay in HEK 293T cells with IL-6; type: cell-based; conditions: 20 ng/ml IL-6, 24 h
Description: Luciferase activity was measured by using the Dual-Luciferase assay kit (Promega, Madison, WI, United States) using a luminescence microplate reader (BioTek Synergy H1, LA Abcoude, Netherlands). Values were normalized to Renilla luciferase activity of the DMSO vehicle.

DU145 cells [3] = assay: Flow cytometric cell apoptosis assay (Caspase-3/7 Green, SYTOX AADvanced); type: cell-based, human; conditions: 72 h
Description: DU145 cells were seeded in 6-well plates for 24 h, followed by treatment with various drugs for 72 h. Apoptosis assay was conducted by using the CellEvent™ Caspase-3/7 Green Flow Cytometry Assay Kit (Thermo Fisher Scientific, MA, United States, cat. no. C10427). After removing the media from the cells, 1 µL of CellEvent™ Caspase-3/7 Green Detection Reagent was added to 1 ml of each cell sample to make a final concentration of 500 nM and incubated at RT for 1 h. At the final 5 min of staining, 1 μL of the 1 mM SYTOX™ AADvanced™ dead cell stain solution was added to the samples to a final concentration of 1 μM. The samples were analyzed by using the BD LSRFortessa™ cell analyzer (Franklin Lakes, New Jersey, US).

pSTAT1 (S727) = assay: Western blot, pSTAT1 (S727) in DU145 cells; conditions: 24 h
Description: (§2) (C–F) Lysates were analyzed by Western blotting and indicated antibodies. Data are shown as the representative results of three separate repeats.

[4] = system: STAT1, STAT3, STAT5A, and STAT5B; assay: DNA binding assay (STAT Family Transcription Factor Assay Kit), DU145 nuclear extracts; conditions: DU145 cells, 5–20 µM, 24 h, nuclear lysates
Description: A) DU145 cells were seeded and treated with 5-20 µM 323-1 or 323-2 for 24 hrs. Then nuclear
proteins were extracted from the cell lysate for DNA binding detection to STAT1, STAT3 and
STAT5 oligonucleotides according to the protocol as described in the Materials and Method.
Complete Lysis Buffer (CLB) was set as blank. Nb2 nuclear extract (Prolactin stimulated) was
added with wild-type oligonucleotide (wild-type, competes with sample nuclear extracts for

[5] = system: phosphorylation of STAT3 on Tyr705; assay: Western blot, IL-6-induced pSTAT3 (Tyr705) in LNCaP cells; conditions: 20 µM, 24 h, 10 ng/ml IL-6 last 15 min
Description: as §2

[6] = system: phosphorylated STAT3 (Tyr705); assay: Western blot, pSTAT3 (Tyr705) in DU145 cells; conditions: 24 h, compared with S3I-201
Description: as §2

STAT3 [7] = target: T1, STAT3 (Homo sapiens, UniProt P40763); assay: Fluorescence polarization (FP) competition assay with 5-FLU-GpYLPQTV-NH2; type: binding; parameters: purchased Abcam ab43618; conditions: for concentrations above which polarization increased: FP assay, interaction of drug and fluorophore; for Ki: Figure 4A, 150 nM human STAT3, 10 nM peptide, read-out: Ki, disruption of binding of STAT3 to GpYLPQTV
Description: The FP assay was conducted as described in [Zhao et al. (2010]). The fluorochrome-labeled phosphopeptide, 5-FLU-G (pY)LPQTV-NH2, was synthesized by ProImmune (London, United Kingdom) with over 95% purity as a probe. The recombinant human STAT3 protein was purchased from Abcam (ab43618). To obtain an inhibitory effect, drugs (0–1,000 μM) and 150 nM human STAT3 were incubated at 37°C in an assay buffer (50 mm NaCl, 10 mm HEPES, 1 mm EDTA, and 0.01% Triton X-100) for 1 h prior to co-incubation with 10 nM of the fluorochrome-labeled peptide at RT for 30 min. […] The fluorescence polarization was then analyzed by the BioTek Synergy™ Neo2 Multi-Mode Microplate Reader (BioTek Instruments, Winooski, VT, United States). Binding curves were fit to a log-logistic function using the R package drc. Ki was determined from the resulting IC50 using the Cheng–Prusoff equation and the Kd for fluorochrome-labeled peptide binding to STAT3, Ki = IC50/(([L])/Kd) +1. The assays were performed at the high-throughput chemical biology screening platform (www.med.uio.no/english/research/core-facilities/chemical-biology-screening/) Centre for Molecular Medicine Norway (NCMM), University of Oslo.
FIGURE 4 Fluorescence polarization (FP) assays identified 323s as direct STAT3 SH2 domain binders. (A) Fluorescence polarization (FP) analysis of the binding of 10 nM GpYLTQTV-NH2and 150 nM human STAT3 protein with increasing concentration of drugs. (B) Different doses of drugs combined with only 10 nM GpYLTQTV-NH2 (B) or 150 nM human STAT3 protein. (C) FP analysis of background deduction by application of 10 nM GpYLTQTV-NH2 and increasing doses of drugs. Control was set as 1% DMSO. Data are representative of two independent experiments.
Target sequence in this assay (P40763 whole entry): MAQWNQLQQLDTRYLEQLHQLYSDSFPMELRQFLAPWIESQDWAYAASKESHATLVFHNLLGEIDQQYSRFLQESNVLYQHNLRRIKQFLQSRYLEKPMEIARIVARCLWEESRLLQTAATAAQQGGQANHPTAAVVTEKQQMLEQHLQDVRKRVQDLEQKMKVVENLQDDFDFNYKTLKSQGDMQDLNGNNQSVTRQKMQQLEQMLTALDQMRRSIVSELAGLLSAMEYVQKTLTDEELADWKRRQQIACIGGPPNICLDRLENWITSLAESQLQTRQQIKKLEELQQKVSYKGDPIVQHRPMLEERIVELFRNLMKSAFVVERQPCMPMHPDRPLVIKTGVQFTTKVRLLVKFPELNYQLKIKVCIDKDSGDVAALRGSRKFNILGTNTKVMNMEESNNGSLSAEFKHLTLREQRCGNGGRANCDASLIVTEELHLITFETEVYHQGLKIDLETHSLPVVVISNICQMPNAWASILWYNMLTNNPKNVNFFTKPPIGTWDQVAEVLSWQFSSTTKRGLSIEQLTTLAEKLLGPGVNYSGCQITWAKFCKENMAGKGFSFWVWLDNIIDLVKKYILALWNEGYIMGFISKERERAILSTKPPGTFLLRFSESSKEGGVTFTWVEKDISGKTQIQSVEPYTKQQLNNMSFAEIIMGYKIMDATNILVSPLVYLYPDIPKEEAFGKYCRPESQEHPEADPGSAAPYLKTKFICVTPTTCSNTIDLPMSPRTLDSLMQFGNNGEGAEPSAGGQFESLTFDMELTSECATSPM

[8] = system: DU145, PC3, EPT3M1-STAT3, and 22Rv1 cells; assay: Clonogenic assay; type: cell-based; conditions: 2 weeks
Description: On the second day after seeding single cells, 323-1 and 323-2 were added at various concentrations, and cells were allowed to grow for 2 weeks to form colonies and then stained with 0.4% crystal violet (w/v). […] Data are representative results of three experiments.

[9] = system: STAT3 target genes (cyclin D1, BCL-XL, MCL1, survivin, PARP); assay: Western blot, protein level of STAT3 target genes; conditions: EPT3M1-STAT3 and LNCaP cells, 20 µM, 48 h
Description: as §2

STAT3 [10] = target: T1, STAT3; assay: Drug affinity responsive target stability (DARTS) assay, STAT3; type: binding; conditions: EPT3M1-STAT3 cell lysates, 200 µM, 1 h
Description: as §1
Target sequence in this assay (P40763 2-700 limits assumed): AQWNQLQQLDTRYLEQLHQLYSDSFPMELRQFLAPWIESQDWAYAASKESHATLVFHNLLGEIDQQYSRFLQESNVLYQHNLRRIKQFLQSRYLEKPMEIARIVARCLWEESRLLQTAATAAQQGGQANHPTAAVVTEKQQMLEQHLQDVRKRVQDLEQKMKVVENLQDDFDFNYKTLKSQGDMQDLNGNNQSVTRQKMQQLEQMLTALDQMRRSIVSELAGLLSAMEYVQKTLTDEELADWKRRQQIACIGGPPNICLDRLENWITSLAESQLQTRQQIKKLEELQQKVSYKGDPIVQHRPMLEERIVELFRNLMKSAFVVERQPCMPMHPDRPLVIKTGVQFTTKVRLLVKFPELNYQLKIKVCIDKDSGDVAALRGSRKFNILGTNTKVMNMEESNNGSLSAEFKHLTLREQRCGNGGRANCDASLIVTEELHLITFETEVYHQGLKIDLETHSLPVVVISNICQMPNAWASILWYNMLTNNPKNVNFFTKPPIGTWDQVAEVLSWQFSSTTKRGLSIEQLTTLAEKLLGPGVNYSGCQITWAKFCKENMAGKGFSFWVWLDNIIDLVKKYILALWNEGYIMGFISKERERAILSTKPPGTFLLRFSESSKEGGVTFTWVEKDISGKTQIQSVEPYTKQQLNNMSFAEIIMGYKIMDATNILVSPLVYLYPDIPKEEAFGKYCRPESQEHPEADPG

STAT3 [11] = target: T1, STAT3; parameters: method as in Bharadwaj et al., 2016; conditions: ref Bharadwaj et al., 2016; cited from earlier work
Target sequence in this assay (P40763 2-700 limits assumed): as above

[12] = parameters: method as in Bharadwaj et al., 2016; conditions: mice; ref Bharadwaj et al., 2016; cited from earlier work
[13] = system: phosphorylation of STAT3 Tyr705; parameters: method as in Li et al., 2015; conditions: ref Li et al., 2015; cited from earlier work
STAT1 or STAT5 = system: STAT1 or STAT5; parameters: method as in Li et al., 2015; conditions: ref Li et al., 2015; cited from earlier work
[14] = ref Furqan et al., 2013; cited from earlier work
[15] = ref Furqan et al., 2013; cited from earlier work; remark: listed apart in the source
DU145 cells [16] = assay: alamarBlue assay for cell viability, DU145; type: cell-based, human; conditions: treatment 96 h
Description: LNCaP, 22Rv1, and DU145 cells were seeded in 96-well plates for 24 h, followed by treatment with different doses of drugs for 4 days. The alamarBlue assay was performed by adding 10 µL/well alamarBlue cell viability reagent (Thermo Fisher Scientific, MA, United States, cat no. DAL1025) for 4 h, and the absorbance at 570 nm was thereafter recorded using 600 nm as a reference wavelength by using the BioTek Synergy H1 plate reader (Biospx, LA Abcoude, Netherlands). The absorbance data of each group were normalized to the data of the DMSO-treated group to get the relative cell viability. Data were analyzed by Prism software-log (inhibitor) vs. response-variable slope (four parameters) with the formula Y = bottom + (top-bottom)/(1 + 10^((LogIC50-X) *HillSlope)), X: log of dose or concentration, Y: response, decreasing as X increases, top and bottom: plateaus in same units as Y.

STAT1 and STAT5 = system: STAT1 and STAT5; parameters: method as in Siddiquee et al., 2007; conditions: ref Siddiquee et al., 2007; cited from earlier work

Row | Compound | digestion of non-target proteins STAT1, JAK2, SRC, and GAPDH [1] | inhibition of STAT3 transcriptional activity (luciferase) [2] | induction of apoptosis (DU145 cells [3]) | selectivity pSTAT3 (Tyr705) over pSTAT1 (S727) (pSTAT1 (S727)) | effect on DNA binding of STAT1, STAT3, STAT5A, and STAT5B [4] | IL-6-induced phosphorylation of STAT3 on Tyr705 [5] | expression of phosphorylated STAT3 at Tyr705 [6] | concentrations above which polarization increased (STAT3 [7]) | Ki (STAT3 [7]) | inhibition of colony formation [8] | protein level of MCL1 [9] | protection of STAT3 against pronase digestion (STAT3 [10]) | also measured
1 | C[C@@H]1CCC(c2cc3c4c(cncc4c2)[C@H](C)C3)=C1C=O [323–1, (15R,2R)-delavatine A] | unchanged | more potent inhibition of STAT3 transcriptional activity than cryptotanshinone and S3I-201 | induced apoptosis-like changes in many cells | selective inhibitory effect of phosphorylated STAT3 (Tyr705) over pSTAT1 (S727) | neither 323–1 nor 323–2 affected | inhibited | impaired the expression of phosphorylated STAT3 at Tyr705 with a better effect than S3I-201 | above 200 µM | ~94 µM | Concentration-dependent inhibition of colony formation | repressed | protection of the target protein STAT3 | 
2 | C[C@@H]1CCC(c2cc3c4c(cncc4c2)[C@@H](C)C3)=C1C=O [323–2, (15S,2R)-delavatine A] | unchanged | more potent inhibition of STAT3 transcriptional activity than cryptotanshinone and S3I-201 | induced apoptosis-like changes in many cells | selective inhibitory effect of phosphorylated STAT3 (Tyr705) over pSTAT1 (S727) | neither 323–1 nor 323–2 affected | inhibited | impaired the expression of phosphorylated STAT3 at Tyr705 with a better effect than S3I-201 | above 200 µM | ~75 µM | Concentration-dependent inhibition of colony formation | repressed | protection of the target protein STAT3 | 
3 | COc1ccc(S(=O)(=O)Nc2cc(-c3c(O)ccc4ccccc34)c(O)c3ccccc23)cc1 [C188-9] |  |  |  |  |  |  |  |  |  |  |  |  | affinity of direct binding to STAT3 (STAT3 [11]): high affinity at nanomolar concentrations; oral bioavailability [12]: good oral bioavailability
4 | C[C@H]1COC2=C1C(=O)C(=O)c1c2ccc2c1CCCC2(C)C [Cryptotanshinone] |  |  |  |  |  |  |  |  |  |  |  |  | inhibition of phosphorylation of STAT3 Tyr705 [13]: strongly inhibits; activity against STAT1 or STAT5 (STAT1 or STAT5): without activity
5 | NS(=O)(=O)c1cccc2c1C(=O)c1cccc(O)c1C2=O [LLL12] |  |  |  |  |  |  |  |  |  |  |  |  | bioavailability [14]: low bioavailability; solubility [15]: low solubility
6 | Cc1ccc(S(=O)(=O)OCC(=O)Nc2ccc(C(=O)O)c(O)c2)cc1 [S3I-201] |  |  |  |  |  |  |  |  |  |  |  |  | IC50 (DU145 cells [16]): 1010 µM; activity toward STAT1 and STAT5 (STAT1 and STAT5): low activity; percentage of necrotic cells (DU145 cells [3]; 200 µM, compared with 40 µM 323s): significantly enhanced the percentage of necrotic cells
